Laboratory results published in patent US12281149B2, “Modulators of G-protein coupled receptors” (priority 2021, dated 2025).
*1 amine or outer side, *2 acyl side, *3 side chain or, on linkers, in order; H or OH if unused. Where a SMILES comes first, the peptide text is derived from it. Side-chain parts run from the residue outwards. [ ]: non-standard residue; d: D form. The star is where a group is joined. Isobutyryl(2-(3-CN-5-F-Ph)) = CC(C)(C(=O)*)c1cc(F)cc(C#N)c1; C20 diacid = O=C(O)CCCCCCCCCCCCCCCCCCC(=O)*; X73 = CC(C)(C(=S)NCCC(=O)*)c1ccc(F)c(F)c1; γGlu = O=C(O)[C@H](CCC(=O)[*:2])N[*:1]; Gla = N[C@@H](CC(C(=O)O)C(=O)O)C(=O)O; X22 = CC(C)(C(=O)*)c1ccc(C#N)cc1F; AEEA = NCCOCCOCC(=O)O; Aib = CC(C)(N)C(=O)O; βAla = NCCC(=O)O

Key:
Assay type in all cases: cell-based
GLP-1 receptor [1] = target: T1, GLP-1 receptor (Homo sapiens, UniProt P43220); assay: HitHunter cAMP assay, GLP-1 receptor; conditions: for EC50: CHO cells stably expressing human GLP-1 receptor, cAMP accumulation, 30 min, read-out: EC50 GLP-1R; for Emax: CHO cells, cAMP, normalized to maximum signal from GLP-1 (high) and DMSO (low), read-out: Emax GLP-1R
GIP receptor [2] = target: T2, GIP receptor (Homo sapiens, UniProt P48546); assay: HitHunter cAMP assay, GIP receptor; conditions: for EC50: CHO cells stably expressing GIP receptor, cAMP accumulation, 30 min, read-out: EC50 GIP-1R; for Emax: CHO cells, cAMP, normalized to maximum signal from GIP (high) and DMSO (low), read-out: Emax GIP-1R
T2 sequence (P48546 22-466): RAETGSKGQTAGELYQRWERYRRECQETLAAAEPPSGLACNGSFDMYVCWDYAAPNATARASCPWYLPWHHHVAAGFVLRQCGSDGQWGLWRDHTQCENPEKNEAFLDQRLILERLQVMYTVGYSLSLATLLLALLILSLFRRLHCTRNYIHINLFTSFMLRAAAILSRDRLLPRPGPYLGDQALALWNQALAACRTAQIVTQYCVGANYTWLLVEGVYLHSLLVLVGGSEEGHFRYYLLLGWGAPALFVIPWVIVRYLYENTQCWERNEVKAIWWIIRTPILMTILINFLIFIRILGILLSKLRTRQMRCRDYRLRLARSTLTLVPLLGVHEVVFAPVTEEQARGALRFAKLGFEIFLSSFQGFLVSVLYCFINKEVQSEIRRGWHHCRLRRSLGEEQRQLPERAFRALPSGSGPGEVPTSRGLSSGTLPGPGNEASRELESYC

GLP-1 receptor [3] = target: T1, GLP-1 receptor; assay: PathHunter β-arrestin assay, GLP-1 receptor; parameters: host or cells: PathHunter CHO-K1 GLP1R β-Arrestin Cell Line; conditions: β-arrestin-2 recruitment, PathHunter CHO-K1 GLP1R β-Arrestin Cell Line, 90 min at 37° C.; normalized to GLP-1; read-out: GLP-1R β Arrestin EC50
Procedure: β-arrestin-2 recruitment for GLP-1 receptor or GIP receptor was measured using the DiscoverX PathHunter Detection Kit and PathHunter® CHO-K1 GLPIR β-Arrestin Cell Line or PathHunter® CHO-K1 GIPR β-Arrestin Cell Line, respectively). Briefly, cells were grown in Ham's F12 Nutrient Mix with 10% FBS and lifted with Cell dissociation buffer, Enzyme free, PBS based (ThermoFisher). Harvested cells were pelleted and resuspended in Assay Complete Cell Plating Reagent 2 and 5000 cells per well were plated in tissue culture treated 384-well small volume white assay plates. Plates were then incubated at 37° C. and 5% CO2 overnight. The media was then replaced with fresh Assay Complete Cell Plating Reagent 2. Cells were then treated with 10 nl compound in DMSO using an ECHO 550 acoustic dispenser (Labcyte) in a 20-point dose response format in duplicate for 90 min at 37° C. The assay was then completed according to the manufacturer's instructions. Luminescence was measured using a Perkin Elmer Envision plate reader. Raw data was normalized to the maximum signal from GLP-1 or GIP (high) and DMSO (low). Dose response curves were analyzed using GraphPad Prism 9.0.

GIP receptor [4] = target: T2, GIP receptor; assay: PathHunter β-arrestin assay, GIP receptor; parameters: host or cells: PathHunter CHO-K1 GIPR β-Arrestin Cell Line; conditions: β-arrestin-2 recruitment, PathHunter CHO-K1 GIPR β-Arrestin Cell Line, 90 min at 37° C.; normalized to GIP; read-out: GIPR β Arrestin EC50

T1 sequence (P43220 24-463): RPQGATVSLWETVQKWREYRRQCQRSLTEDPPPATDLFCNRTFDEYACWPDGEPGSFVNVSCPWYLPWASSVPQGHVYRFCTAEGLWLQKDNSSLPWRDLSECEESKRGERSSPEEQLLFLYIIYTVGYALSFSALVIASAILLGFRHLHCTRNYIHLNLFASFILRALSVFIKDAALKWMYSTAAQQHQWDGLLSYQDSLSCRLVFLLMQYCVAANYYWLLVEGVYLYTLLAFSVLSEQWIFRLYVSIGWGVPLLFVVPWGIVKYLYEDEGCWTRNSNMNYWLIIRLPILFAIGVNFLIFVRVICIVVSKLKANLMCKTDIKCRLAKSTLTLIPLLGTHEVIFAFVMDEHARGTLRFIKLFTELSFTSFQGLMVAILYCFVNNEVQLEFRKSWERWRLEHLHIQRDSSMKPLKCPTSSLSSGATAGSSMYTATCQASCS

| SMILES | EC50 (GLP-1 receptor [1]) [nM] | Emax (GLP-1 receptor [1]) [%] | EC50 (GIP receptor [2]) [nM] | Emax (GIP receptor [2]) [%] | EC50 (GLP-1 receptor [3]) [nM] | EC50 (GIP receptor [4]) [nM] |
| --- | --- | --- | --- | --- | --- | --- |
| CC[C@H](C)[C@H](NC(=O)[C@H](CC(C)C)NC(=O)[C@H](Cc1c[nH]c2ccccc12)NC(=O)[C@H](CCC(N)=O)NC(=O)[C@@H](NC(=O)[C@H](Cc1ccccc1)NC(=O)[C@H](C)NC(=O)[C@H](CCCCNC(=O)COCCOCCNC(=O)COCCOCCNC(=O)CC[C@H](NC(=O)CCCCCCCCCCCCCCCCCCC(=O)O)C(=O)O)NC(=O)[C@H](CCC(N)=O)NC(=O)[C@H](C)NC(=O)[C@@H](NC(=O)[C@H](CCCCN)NC(=O)[C@H](CC(=O)O)NC(=O)[C@H](CC(C)C)NC(=O)C(C)(C)NC(=O)[C@@H](NC(=O)[C@H](CO)NC(=O)[C@H](Cc1ccc(O)cc1)NC(=O)[C@H](CC(=O)O)NC(=O)[C@H](CO)NC(=O)[C@@H](NC(=O)[C@H](Cc1ccccc1)NC(=O)[C@@H](NC(=O)CNC(=O)[C@H](CC(C(=O)O)C(=O)O)NC(=O)CCNC(=O)C(C)(C)c1cc(F)cc(C#N)c1)[C@@H](C)O)[C@@H](C)O)[C@@H](C)CC)[C@@H](C)CC)C(C)C)C(=O)N[C@@H](C)C(=O)NCC(=O)NCC(=O)N1CCC[C@H]1C(=O)N[C@@H](CO)C(=O)N[C@@H](CO)C(=O)NCC(=O)N[C@@H](C)C(=O)N1CCC[C@H]1C(=O)N1CCC[C@H]1C(=O)N1CCC[C@H]1C(=O)N[C@@H](CO)C(N)=O [Compound 111] ({Isobutyryl(2-(3-CN-5-F-Ph))-βAla}-[Gla]GTFTSDYSI[Aib]LDKIAQK([AEEA-AEEA-γGlu-C20 diacid])AFVQWLIAGGPSSGAPPPS-NH2) | 1 to 10 | 95 | 10 to 100 | 105 | > 1000 | > 1000 |
| CC[C@H](C)[C@H](NC(=O)[C@H](CC(C)C)NC(=O)[C@H](Cc1c[nH]c2ccccc12)NC(=O)[C@H](CCC(N)=O)NC(=O)[C@@H](NC(=O)[C@H](Cc1ccccc1)NC(=O)[C@H](C)NC(=O)[C@H](CCCCNC(=O)COCCOCCNC(=O)COCCOCCNC(=O)CC[C@H](NC(=O)CCCCCCCCCCCCCCCCCCC(=O)O)C(=O)O)NC(=O)[C@H](CCC(N)=O)NC(=O)[C@H](C)NC(=O)[C@@H](NC(=O)[C@H](CCCCN)NC(=O)[C@H](CC(=O)O)NC(=O)[C@H](CC(C)C)NC(=O)C(C)(C)NC(=O)[C@@H](NC(=O)[C@H](CO)NC(=O)[C@H](Cc1ccc(O)cc1)NC(=O)[C@H](CC(=O)O)NC(=O)[C@H](CO)NC(=O)[C@@H](NC(=O)[C@H](Cc1ccccc1)NC(=O)[C@@H](NC(=O)CNC(=O)[C@H](CCC(=O)O)NC(=O)CCNC(=O)C(C)(C)c1ccc(C#N)cc1F)[C@@H](C)O)[C@@H](C)O)[C@@H](C)CC)[C@@H](C)CC)C(C)C)C(=O)N[C@@H](C)C(=O)NCC(=O)NCC(=O)N1CCC[C@H]1C(=O)N[C@@H](CO)C(=O)N[C@@H](CO)C(=O)NCC(=O)N[C@@H](C)C(=O)N1CCC[C@H]1C(=O)N1CCC[C@H]1C(=O)N1CCC[C@H]1C(=O)N[C@@H](CO)C(N)=O [Compound 149] ({X22-βAla}-EGTFTSDYSI[Aib]LDKIAQK([AEEA-AEEA-γGlu-C20 diacid])AFVQWLIAGGPSSGAPPPS-NH2) | 0.1 to 1 | 98 | 1 to 10 | 96 | > 1000 | < 1000 |
| CC[C@H](C)[C@H](NC(=O)[C@H](CCCCN)NC(=O)[C@H](CC(=O)O)NC(=O)[C@H](CC(C)C)NC(=O)[C@H](Cc1ccc(O)cc1)NC(=O)[C@@H](NC(=O)[C@H](CO)NC(=O)[C@H](Cc1ccc(O)cc1)NC(=O)[C@H](CC(=O)O)NC(=O)[C@H](CO)NC(=O)[C@@H](NC(=O)[C@H](Cc1ccccc1)NC(=O)[C@@H](NC(=O)CNC(=O)[C@H](CCC(=O)O)NC(=O)CCNC(=O)C(C)(C)c1cc(F)cc(C#N)c1)[C@@H](C)O)[C@@H](C)O)[C@@H](C)CC)C(=O)N[C@@H](C)C(=O)N[C@@H](CCC(N)=O)C(=O)N[C@@H](CCCCNC(=O)COCCOCCNC(=O)COCCOCCNC(=O)CC[C@H](NC(=O)CCCCCCCCCCCCCCCCCCC(=O)O)C(=O)O)C(=O)N[C@@H](C)C(=O)N[C@@H](Cc1ccccc1)C(=O)N[C@H](C(=O)N[C@@H](CCC(N)=O)C(=O)N[C@@H](Cc1c[nH]c2ccccc12)C(=O)N[C@@H](CC(C)C)C(=O)N[C@H](C(=O)N[C@@H](C)C(=O)NCC(=O)NCC(=O)N1CCC[C@H]1C(=O)N[C@@H](CO)C(=O)N[C@@H](CO)C(=O)NCC(=O)N[C@@H](C)C(=O)N1CCC[C@H]1C(=O)N1CCC[C@H]1C(=O)N1CCC[C@H]1C(=O)N[C@@H](CO)C(N)=O)[C@@H](C)CC)C(C)C [Compound 189] ({Isobutyryl(2-(3-CN-5-F-Ph))-βAla}-EGTFTSDYSIYLDKIAQK([AEEA-AEEA-γGlu-C20 diacid])AFVQWLIAGGPSSGAPPPS-NH2) | 0.1 to 1 | 95 | 10 to 100 | 93 | > 1000 | > 1000 |
| CC[C@H](C)[C@H](NC(=O)[C@H](CO)NC(=O)[C@H](Cc1ccc(O)cc1)NC(=O)[C@H](CC(=O)O)NC(=O)[C@H](CO)NC(=O)[C@@H](NC(=O)[C@](C)(Cc1ccccc1F)NC(=O)[C@@H](NC(=O)CNC(=O)[C@H](CCC(=O)O)NC(=O)CCNC(=O)C1(c2ccc(Cl)cc2)CCCC1)[C@@H](C)O)[C@@H](C)O)C(=O)N[C@@H](Cc1ccc(O)cc1)C(=O)N[C@@H](CC(C)C)C(=O)N[C@@H](CC(=O)O)C(=O)N[C@@H](CCCCN)C(=O)N[C@@H](CCC(N)=O)C(=O)N[C@@H](C)C(=O)N[C@@H](C)C(=O)NC(C)(C)C(=O)N[C@@H](CCC(=O)O)C(=O)N[C@@H](Cc1ccccc1)C(=O)N[C@H](C(=O)N[C@@H](CC(N)=O)C(=O)N[C@@H](Cc1c[nH]c2ccccc12)C(=O)N[C@@H](CC(C)C)C(=O)N[C@@H](CC(C)C)C(=O)N[C@@H](C)C(=O)NCC(=O)NCC(=O)N1CCC[C@H]1C(=O)N[C@@H](CO)C(=O)N[C@@H](CO)C(=O)NCC(=O)N[C@@H](C)C(=O)N1CCC[C@H]1C(=O)N1CCC[C@H]1C(=O)N1CCC[C@H]1C(=O)N[C@@H](CO)C(=O)N[C@@H](CCCCNC(=O)COCCOCCNC(=O)COCCOCCNC(=O)CC[C@H](NC(=O)CCCCCCCCCCCCCCCCCCC(=O)O)C(=O)O)C(N)=O)C(C)C [Compound 141] | 0.1 to 1 | 97 | 0.1 to 1 | 108 | > 1000 | < 1000 |
| CC[C@H](C)[C@H](NC(=O)[C@H](CC(C)C)NC(=O)[C@H](Cc1c[nH]c2ccccc12)NC(=O)[C@H](CCC(N)=O)NC(=O)[C@@H](NC(=O)[C@H](Cc1ccccc1)NC(=O)[C@H](C)NC(=O)[C@H](CCCCNC(=O)COCCOCCNC(=O)COCCOCCNC(=O)CC[C@H](NC(=O)CCCCCCCCCCCCCCCCCCC(=O)O)C(=O)O)NC(=O)[C@H](CCC(N)=O)NC(=O)[C@H](C)NC(=O)[C@@H](NC(=O)[C@H](CCCCN)NC(=O)[C@H](CC(=O)O)NC(=O)[C@H](CC(C)C)NC(=O)C(C)(C)NC(=O)[C@@H](NC(=O)[C@H](CO)NC(=O)[C@H](Cc1ccc(O)cc1)NC(=O)[C@H](CC(=O)O)NC(=O)[C@H](CO)NC(=O)[C@@H](NC(=O)[C@H](Cc1ccccc1)NC(=O)[C@@H](NC(=O)CNC(=O)[C@H](CCC(=O)O)NC(=O)CCNC(=S)C(C)(C)c1ccc(F)c(F)c1)[C@@H](C)O)[C@@H](C)O)[C@@H](C)CC)[C@@H](C)CC)C(C)C)C(=O)N[C@@H](C)C(=O)NCC(=O)NCC(=O)N1CCC[C@H]1C(=O)N[C@@H](CO)C(=O)N[C@@H](CO)C(=O)NCC(=O)N[C@@H](C)C(=O)N1CCC[C@H]1C(=O)N1CCC[C@H]1C(=O)N1CCC[C@H]1C(=O)N[C@@H](CO)C(N)=O [Compound 137] (X73-EGTFTSDYSI[Aib]LDKIAQK([AEEA-AEEA-γGlu-C20 diacid])AFVQWLIAGGPSSGAPPPS-NH2) | 0.1 to 1 | 99 | 10 to 100 | 87 | > 1000 | > 1000 |
